From patent US11685724B2, “Synthetic intermediates for novel cannabinoids and cannabinoid acids and their derivatives” (priority 2018, dated 2023)
Read-outs that look alike come from different tables or passages of the source.

Experiments:
CB2 = CB2 (Homo sapiens, UniProt P34972); details: background statement with literature references; cited from earlier work
TRPV1 channels = assay: Calcium assay of TRPV1 channel activity in HEK-TRPV1 cells; format: cell-based; details: Fluo-4 loaded, 1 mM external calcium chloride, 0-20 seconds baseline, compound added at 20 seconds, FIGS. 1A-1D
Protocol: Molecular Pharmacology, 2016, volume 90, pages 300-308) HEK 293 cells with TRPV1 channels have been used as model systems (P. Geppetti and M. Trevisani, Activation and sensitisation of the vanilloid receptor: role in gastrointestinal inflammation and function, British Journal of Pharmacology, 2004, volume 141, pages 1313-1320);
HEK TRexTRPV1 cultured in DMEM, 10% Fetal Bovine Serum, 2 mM L-glutamine, 10 microgramg/m1 Blasticidin (Calbiochem, San Diego Calif.), […] Zeocin (InvivoGen, San Diego Calif.), followed by inducing indicated transgene expression using 1 microgram/ml Tetracycline for 16-24 hrs. Comparisons made to untransfected HEK cells or HEKTRexTRPV1 with or without induction.
[…] Cells transferred to 96-well plates at 50,000 cells/well and stimulated as indicated. Calcium signals acquired using a Flexstation 3 (Molecular Devices, Sunnydale, USA). Data are analyzed according to the methods in I. Diaz-Franulic, J. Caceres-Molina, R. V. Sepulveda, F. Gonzalez-Nilo, R. Latorre, Structure-Driven Pharmacology of Transient Receptor Potential Channel Vanilloid 1, Molecular Pharmacology, 2016, volume 90, pages 300-8. […]

CB1 receptors = CB1 receptors (Homo sapiens, UniProt P21554); details: cited from earlier work
CB1 receptors, sequence (P21554 whole entry): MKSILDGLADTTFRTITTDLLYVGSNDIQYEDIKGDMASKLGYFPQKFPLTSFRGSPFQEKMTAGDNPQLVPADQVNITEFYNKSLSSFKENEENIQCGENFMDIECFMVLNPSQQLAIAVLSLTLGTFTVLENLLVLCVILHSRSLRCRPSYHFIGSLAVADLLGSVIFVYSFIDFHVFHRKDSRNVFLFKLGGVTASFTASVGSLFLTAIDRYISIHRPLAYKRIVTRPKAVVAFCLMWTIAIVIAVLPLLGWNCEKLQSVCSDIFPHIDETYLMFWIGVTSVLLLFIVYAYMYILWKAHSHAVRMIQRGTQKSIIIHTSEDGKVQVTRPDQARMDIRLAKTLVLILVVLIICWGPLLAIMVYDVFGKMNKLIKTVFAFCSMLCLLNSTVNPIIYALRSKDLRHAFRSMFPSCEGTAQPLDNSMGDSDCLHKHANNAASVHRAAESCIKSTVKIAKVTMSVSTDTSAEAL

[1] = background statement with literature references

CB2, sequence (P34972 whole entry, species assumed): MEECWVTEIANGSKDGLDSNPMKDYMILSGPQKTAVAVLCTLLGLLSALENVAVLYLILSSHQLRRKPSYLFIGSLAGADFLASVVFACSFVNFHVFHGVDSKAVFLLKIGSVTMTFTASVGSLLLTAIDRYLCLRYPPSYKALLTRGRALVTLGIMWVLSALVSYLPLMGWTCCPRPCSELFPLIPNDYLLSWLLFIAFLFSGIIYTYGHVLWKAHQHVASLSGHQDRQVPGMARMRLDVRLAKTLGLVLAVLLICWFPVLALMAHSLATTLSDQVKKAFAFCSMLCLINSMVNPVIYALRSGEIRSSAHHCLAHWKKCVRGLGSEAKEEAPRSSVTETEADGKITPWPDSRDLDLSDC

| Compound | CB2 receptor modulation (kind of action) (CB2) | biological finger print and dose response on TRPV1 channels (calcium signal), synthesized vs reference standard cannabidiol (TRPV1 channels) | CB1 receptor modulation (kind of action) (CB1 receptors; [1]) | CB1 receptor modulation (kind of action) (CB1 receptors) |
| --- | --- | --- | --- | --- |
| C=C(C)[C@@H]1CCC(C)=C[C@H]1c1c(O)cc(CCCCC)cc1O [cannabidiol (11, CBD), Cannabidiol] | do not interact significantly | same “biological finger print” and dose response | do not interact significantly |  |
| C=C(C)[C@@H]1CCC(C)=C[C@H]1c1c(O)cc(CCC)cc1O [cannabidivarin (12), cannabidivarin] | do not interact significantly |  | do not interact significantly |  |
| CCCCCc1cc(O)c2c(c1)OC(C)(C)c1ccc(C)cc1-2 [cannabinol (10), cannabinol] | modest agonists |  |  | weak agonist |
| CCCc1cc(O)c2c(c1)OC(C)(C)[C@@H]1CCC(C)=C[C@@H]21 [tetrahydrocannabivarin (9), tetrahydrocannabivarin] | modest agonists |  | weak antagonist |  |
